Measurements as given in ChEMBL document CHEMBL1150103, “Curacins B and C, New Antimitotic Natural Products from the Marine Cyanobacterium Lyngbya majuscula” (J Nat Prod, 1995).
pIC50: −log10 of the molar value.

Columns and labels:
[1] = Toxicity in brine shrimp; assay type: organism-based; settings: artemia, in vivo; read-out: LD50 (the source's name)
L1210 = experiment: Cytotoxicity against mouse L1210 cells; assay type: functional, cell-based
CA46 = experiment: Cytotoxicity against human CA46 cells; assay type: functional, cell-based
[2] = Inhibition of tubulin polymerization
[3] = Displacement of [3H]colchicine from tubulin; settings: concentration not given here

| Structure (SMILES) | LC50 [1] [nM] | Activity (L1210) | Activity (CA46) | pIC50 [2] | inhibition [3] [%] |
| --- | --- | --- | --- | --- | --- |
| C=CC[C@@H](CC/C(C)=C\C=C\CC/C=C\[C@@H]1CSC([C@@H]2C[C@@H]2C)=N1)OC [CURACIN C] | 54 | Toxic | Toxic |  |  |
| C=CC[C@@H](CC/C(C)=C/C=C\CC/C=C\[C@@H]1CSC([C@@H]2C[C@@H]2C)=N1)OC [CURACIN B] | 38 | Toxic | Toxic |  |  |
| C=CC[C@@H](CC/C(C)=C/C=C/CC/C=C\[C@@H]1CSC([C@@H]2C[C@@H]2C)=N1)OC [CURACIN A] | 8 |  |  | 5.85 | 96 |
